Legend:
[1] = system: Ornithine decarboxylase (ODC); assay: ODC inhibitory activity in vivo (ODC activity in ventral prostate and thymus of rats); parameters: species or system rats (Sprague-Dawley)
Experimental: Male rats of the Sprague-Dawley strain (200-220 g body weight), purchased from Charles River, are given food and water ad libitum under a constant 12 hr light--12 hr dark lighting schedule. Drugs are injected intraperitoneally (dissolved in 0.9% saline) or are given by gavage (dissolved in water). Rats given saline or water serve as control. Five to six hours after drug administration, the animals are killed by decapitation and the ventral prostrate and thymus are excised rapidly and immediately processed. The tissues are homogenized with three volumes of 30 mM sodium phosphate buffer (pH 7.1) containing 0.1 mM EDTA, 0.25 M sucrose, 0.1 mM pyridoxal phosphate and 5 mM dithiothreitol. Ornithine decarboxylase activities are determined on a 1000 g supernatant of prostate homogenate and on a whole thymus homogenate, essentially as described by Ono et al. (Biochem. Biophys. Acta, 284, 285 (1972)).
When tested according to the above-described procedure, representative compounds of Formula I gave the results shown in Table II below and in which the following abbreviations are used: […]

[2] = biological target: T1, Ornithine decarboxylase (ODC) (Rattus norvegicus, UniProt P09057); assay: Inhibition of ornithine decarboxylase (ODC) in vitro (partially purified ODC from rat liver, 14CO2 assay, Kitz and Wilson); type: biochemical, rats; parameters: Half-life (t1/2): dose or concentration left out as unconfirmed; conditions: for τ50 (half-life, at infinite concentration of inhibitor) / Ki: 37°, Kitz and Wilson; for Ki: time-dependent inhibition, read-out: KI (apparent dissociation constant)
T1 construct: prepared from the livers of rats which have been injected with thioacetamide; from tissue; host or cells: rat liver (thioacetamide-injected rats), purified about ten fold by acid treatment at pH 4.6
T1 sequence (P09057 1-461): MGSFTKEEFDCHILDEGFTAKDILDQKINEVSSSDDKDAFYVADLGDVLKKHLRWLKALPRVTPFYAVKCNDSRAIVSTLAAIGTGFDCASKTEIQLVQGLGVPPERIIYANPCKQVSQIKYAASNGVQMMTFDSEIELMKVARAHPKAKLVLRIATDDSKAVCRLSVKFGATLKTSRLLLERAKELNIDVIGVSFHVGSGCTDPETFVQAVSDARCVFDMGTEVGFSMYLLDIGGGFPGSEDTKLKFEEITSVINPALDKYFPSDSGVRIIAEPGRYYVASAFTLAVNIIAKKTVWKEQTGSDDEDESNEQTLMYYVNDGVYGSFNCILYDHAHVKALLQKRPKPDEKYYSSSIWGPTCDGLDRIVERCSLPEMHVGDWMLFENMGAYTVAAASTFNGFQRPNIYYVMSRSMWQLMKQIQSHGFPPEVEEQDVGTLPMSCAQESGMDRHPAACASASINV
Experimental: Ornithine decarboxylase (ODC) is prepared from the livers of rats which have been injected with thioacetamide (150 mg/kg of body weight) 18 hrs before sacrifice, and is purified about ten fold by acid treatment at pH 4.6 as described by Ono et al. (Biochem. Biophys. Acta 284, 285 (1972)). The stock solution of ODC is comprised of protein (16 mg/mL), sodium phosphate buffer (30 mM, pH 7.1), dithiothreitol (5 mM) and pyridoxal phosphate (0.1 mM). The specific activity of this stock solution is 0.12 nmol of CO2 /min per mg of protein. For a typical experiment 320 μl of this stock solution are mixed at time 0 with 80 μl of a solution of the inhibitor in water and incubated at 37°. At different times 50 μl aliquots are transferred into a 1-mL assay medium containing sodium phosphate (30 mM, pH 7.1), dithiothreitol (5 mM), pyridoxal phosphate (0.1 mM), L-ornithine ([…]), and DL-[1-^14 C] ornithine ([…], 58 Ci/mol, Amersham) in a closed vessel in which a filter paper moistered with 50 μl hyamine hydroxide (1 M) is fitted. The reaction is allowed to proceed for 60 min at 37° C. and then terminated by addition of 0.5 ml of 40% trichloroacetic acid. After an additional 30 min the CO2 absorbed on the filter paper is counted in a standard scintillation cocktail. KI (apparent dissociation constant) and .tau.50 (half-life, at infinite concentration of inhibitor are calculated according to the method of Kitz and Wilson (J. Biol. Chem., 237, 3245 (1962)).
When tested according to the above-described procedure, representative compounds of Formula I gave the results shown in Table III below. The same abbreviations are used as in Table II and DFMDP is α-difluoromethyl-trans-β-dehydroputrescine.

[3] = Contragestational activity in mice (method of J. Fozard); type: in vivo; conditions: 80 mg/kg S.C. every six hours on the 8th day of gestation
Experimental: The compounds of Formula I wherein Rc is --COR3 are also capable of interrupting embryogenesis in female mammals when administered systematically. Thus, the compounds are useful as contragestational agents in female mammals when it is desired to terminate early pregnancy. […] In general, an effective daily dose of the compounds of Formula I, wherein Rc is --COR3, for terminating pregnancy in warm-blooded mammals is from 10 mg/kg to 1 g/kg, preferably 10 to 100 mg/kg, administered after fertilisation during the period between Standard Stages 8-16 of gestation as defined by E. Wischi (See Tables 26-27, pages 82-92, Biology Data Book, Altman and Dittmer, Editors, Published by the Federation of American Societies for Experimental Biology, Washington, D.C., 1964). The period of treatment will vary with the species. In humans, the period of treatment will extend from the 6th-7th day of gestation of the 27th day.

L 1210 leukemia = type: in vivo, mice
Experimental: (§1) When tested in mice against L 1210 leukemia and EMT6 solid tumors, -fluoromethyl-trans-dehydroputrescine (MFMDP) gave the following results:
When injected i.p. (twice a day from day 1) at a dose of 50 mg/kg it increased by 20% the mean survival time of the mice.

[4] = Acute i.p. toxicity (LD50) in mice; conditions: mouse, in vivo, ip, acute i.p. injection
Source text: The LD50 is acute i.p. injection was between 1 and 3 g/kg in mice.

ODC = ODC activity in the EMT6 tumor of treated mice; type: in vivo; conditions: all treatments (2% and 0.2% in water, 200 mg/kg i.p.)
in vivo = type: in vivo, mice; conditions: 2% in drinking water or 200 mg/kg i.p. twice a day, after 10 days
Experimental: When given in drinking water (2%) or injected i.p. (200 mg/kg twice a day) MFMDP induced the following toxic effects observed after 10 days of treatment: […]

EMT6 solid tumors = assay: Anti-neoplastic effect in mice inoculated with EMT6 solid sarcoma; type: in vivo
Source text: as §1
2% MFMDP in water as sole drinking fluid starting 4 days after inoculation of the cells, inhibited by 60% to 70% the growth of the tumor at day 17. When given at 0.2% in water, it inhibited by 25% tumor growth.

[5] = system: carcinoma of the bladder, esophagus, lung, pancreas, colon, kidney, breast and prostate, oat cell carcinoma, adenocarcinoma, lymphoma, hepatoma, melanoma …; conditions: intravenously once or twice a week; 65 treated patients; cited from earlier work

NC/C=C/C(N)(C(=O)O)C(F)F (centres unmarked) [DFMDO, 2-Difluoromethyl-2,5-diamino-3-(E)-penten-1-oic acid]
ODC activity, ventral prostate ([1]; 50 mg/kg gavage): 119 % CONTROL
Half-life (t1/2) [2]: 10.0 min
τ50 (half-life, at infinite concentration of inhibitor) [2]: 2.5 min
Ki [2]: 30 µM

NC/C=C/C(N)C(F)F (centres unmarked) [DFMDP, 2,2-Difluoro-2,5-diamino-3-(E)-pentene]
Half-life (t1/2) [2]: 5 min
τ50 (half-life, at infinite concentration of inhibitor) [2]: 0.7 min
Ki [2]: 60 µM

NC/C=C/C(N)(CF)C(=O)O (centres unmarked) [MFMDO, 2-Fluoromethyl-2,5-diamino-3-(E)-penten-1-oic acid]
ODC activity, ventral prostate ([1]; 50 mg/kg I.P.): 18 % CONTROL
ODC activity, ventral prostate ([1]; 50 mg/kg gavage): 36 % CONTROL
Half-life (t1/2) [2]: 3.1 min
τ50 (half-life, at infinite concentration of inhibitor) [2]: 2.7 min
Ki [2]: 2.8 µM
inhibition of gestation (number of viable feti per gravid female vs controls) [3]: inhibited gestation

NC/C=C/C(N)CF (centres unmarked) [MFMDP, 1-Fluoro-2,5-diamino-3-(E)-pentene]
increase of mean survival time (L 1210 leukemia; 50 mg/kg i.p. twice a day from day 1): 20%
prolongation of survival (L 1210 leukemia; 0.2% in water as sole drinking fluid from day 1 after inoculation): did not prolong the survival of the mice
increased survival (L 1210 leukemia; 200 mg/kg i.p.): no increased survival could be observed
toxicity (L 1210 leukemia; 200 mg/kg i.p., L 1210 mice): toxic
ODC activity, thymus ([1]; 25 mg/kg I.P.): 24 % CONTROL
ODC activity, ventral prostate ([1]; 25 mg/kg gavage): 12 % CONTROL
LD50 [4]: 1000 to 3000 mg/kg
ODC activity in the tumor (ODC): markedly inhibited in all cases
Half-life (t1/2) [2]: 0.9 min
τ50 (half-life, at infinite concentration of inhibitor) [2]: 0.2 min
Ki [2]: 42 µM
decrease in body weight (in vivo): 25%
decrease in water intake (in vivo): 30-40%
drop in blood leukocytes (in vivo): 50%
mortality at 240 h (in vivo; mouse, in vivo, read-out: animals dead): 15%
inhibition of tumor growth (EMT6 solid tumors; 0.2% in water): 25%
inhibition of tumor growth (EMT6 solid tumors; 200 mg/kg i.p. twice a day starting 4 days after inoculation, day 13): 50%

CC(C=NNC(=N)N)=NNC(=N)N [MGBG, methylglyoxal bis(guanylhydrazone)]
complete disappearance of the disease [5]: complete disappearance of the disease in two of the 65 treated patients
regression of the tumor [5]: measurable regression of the tumor in many of the patients treated
